From ChEMBL document CHEMBL5543117, “Novel TLR4-Activating Vaccine Adjuvant Enhances the Production of Enterococcus faecium-binding Antibodies” (J Med Chem, 2024)
Active and inactive are the calls of the source. The rule behind the calls is not given here.

Key:
[1] = target: Toll-like receptor 4 (Homo sapiens) (UniProt O00206); experiment: Agonist activity at human TLR4 in HEK-Blue hTLR4 cells assessed as increase in SEAP level incubated for 16 to 18 hrs by SEAP reporter gene based Quanti-Blue assay; type: cell-based; settings: filed as agonist, dose 0.1-25 µM, time 16-18 hrs
Chain of Toll-like receptor 4 (Homo sapiens) (O00206 whole entry): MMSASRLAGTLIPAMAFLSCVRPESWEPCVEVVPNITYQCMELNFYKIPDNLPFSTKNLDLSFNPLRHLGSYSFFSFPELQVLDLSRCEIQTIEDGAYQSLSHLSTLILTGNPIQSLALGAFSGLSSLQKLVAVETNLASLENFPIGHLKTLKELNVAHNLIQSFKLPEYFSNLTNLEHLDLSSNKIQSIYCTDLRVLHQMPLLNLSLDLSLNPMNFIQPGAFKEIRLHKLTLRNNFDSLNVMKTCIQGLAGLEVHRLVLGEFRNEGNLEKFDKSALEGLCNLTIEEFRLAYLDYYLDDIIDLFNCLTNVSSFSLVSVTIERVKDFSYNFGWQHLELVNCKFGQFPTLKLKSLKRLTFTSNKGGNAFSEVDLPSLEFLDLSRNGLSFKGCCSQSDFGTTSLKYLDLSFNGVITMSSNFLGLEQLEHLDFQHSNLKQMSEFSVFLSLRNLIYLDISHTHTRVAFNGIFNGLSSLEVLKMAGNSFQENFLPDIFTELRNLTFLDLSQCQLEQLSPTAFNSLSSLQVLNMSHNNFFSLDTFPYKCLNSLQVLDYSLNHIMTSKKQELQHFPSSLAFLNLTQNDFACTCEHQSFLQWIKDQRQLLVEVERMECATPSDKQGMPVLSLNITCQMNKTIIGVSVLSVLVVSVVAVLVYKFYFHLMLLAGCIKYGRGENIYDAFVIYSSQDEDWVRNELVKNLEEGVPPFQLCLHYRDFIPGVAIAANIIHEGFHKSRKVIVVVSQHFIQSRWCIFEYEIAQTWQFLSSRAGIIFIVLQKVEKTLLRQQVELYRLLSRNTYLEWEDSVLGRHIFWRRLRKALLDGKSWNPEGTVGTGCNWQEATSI

[2] = target: Toll-like receptor 2 (Homo sapiens) (UniProt O60603); experiment: Agonist activity at human TLR2 in HEK-Blue hTLR2 cells assessed as increase in SEAP level at 0.1 to 25 uM incubated for 16 to 18 hrs by SEAP reporter gene based Quanti-Blue assay; type: cell-based; settings: dose 0.1-25 µM, time 16-18 hrs
Chain of Toll-like receptor 2 (Homo sapiens) (O60603 whole entry): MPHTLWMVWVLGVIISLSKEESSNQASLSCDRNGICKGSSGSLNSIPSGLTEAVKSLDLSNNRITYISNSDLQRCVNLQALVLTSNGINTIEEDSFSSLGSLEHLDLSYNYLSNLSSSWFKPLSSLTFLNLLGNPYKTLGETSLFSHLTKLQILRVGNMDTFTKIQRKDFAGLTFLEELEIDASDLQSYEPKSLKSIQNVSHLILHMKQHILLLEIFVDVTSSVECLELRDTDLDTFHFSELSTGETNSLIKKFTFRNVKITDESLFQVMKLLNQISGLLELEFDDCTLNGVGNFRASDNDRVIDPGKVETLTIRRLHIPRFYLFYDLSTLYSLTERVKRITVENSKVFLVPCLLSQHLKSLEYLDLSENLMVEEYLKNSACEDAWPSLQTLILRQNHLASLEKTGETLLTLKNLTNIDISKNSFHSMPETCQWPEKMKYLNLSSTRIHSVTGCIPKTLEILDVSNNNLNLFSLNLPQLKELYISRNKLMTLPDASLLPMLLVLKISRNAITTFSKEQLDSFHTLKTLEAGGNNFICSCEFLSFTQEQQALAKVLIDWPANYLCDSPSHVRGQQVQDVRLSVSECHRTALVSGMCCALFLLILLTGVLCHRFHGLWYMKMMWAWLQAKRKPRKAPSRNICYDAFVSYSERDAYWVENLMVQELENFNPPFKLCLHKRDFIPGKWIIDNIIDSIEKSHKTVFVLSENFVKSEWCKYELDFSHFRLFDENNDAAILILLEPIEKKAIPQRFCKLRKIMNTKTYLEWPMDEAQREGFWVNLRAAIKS

THP1-Xblue [3] = experiment: Immunostimulatory activity in human THP1-Xblue cells assessed as increase in TNF-alpha release incubated for 16 to 18 hrs by ELISA; type: functional, cell-based; settings: dose 0.1-10 µM, time 16-18 hrs
THP1-Xblue [4] = experiment: Immunostimulatory activity in human THP1-Xblue cells assessed as increase in IL-1beta release incubated for 16 to 18 hrs by ELISA; type: functional, cell-based; settings: dose 0.1-10 µM, time 16-18 hrs
THP1-Xblue [5] = experiment: Immunostimulatory activity in human THP1-Xblue cells assessed as increase in IL-6 release incubated for 16 to 18 hrs by ELISA; type: functional, cell-based; settings: dose 0.1-10 µM, time 16-18 hrs
[6] = target: Toll-like receptor 4 (Homo sapiens) (UniProt O00206); experiment: Agonist activity at TLR4 in human THP1-Xblue cells assessed as increase in SEAP level at 0.1 to 10 uM incubated for 16 to 18 hrs by SEAP reporter gene based Quanti-Blue assay; type: cell-based; settings: filed as agonist, dose 0.1-10 µM, time 16-18 hrs
[7] = target: Toll-like receptor 4 (Homo sapiens) (UniProt O00206); experiment: Agonist activity at TLR4 in human THP1-Xblue cells assessed as induction of IkappaBalpha degradation at 10 uM incubated for 15 mins by immunoblotting analysis; type: cell-based; settings: filed as agonist
[8] = target: Toll-like receptor 4 (Homo sapiens) (UniProt O00206); experiment: Agonist activity at TLR4 in human THP1-Xblue cells assessed as induction of p65 phosphorylation at 10 uM incubated for 120 to 240 mins by immunoblotting analysis; type: cell-based; settings: filed as agonist, time 120-240 min
[9] = target: Transcription factor p65 (Homo sapiens) (UniProt Q04206); experiment: Induction of NFkappaB p65 nuclear translocation in human THP1-Xblue cells assessed as percentage of positive nuclei at 10 uM measured after 90 mins by Hoechst 33342 staining based immunofluorescence analysis relative to control (reference value: 0%); type: cell-based
Chain of Transcription factor p65 (Homo sapiens) (Q04206 whole entry): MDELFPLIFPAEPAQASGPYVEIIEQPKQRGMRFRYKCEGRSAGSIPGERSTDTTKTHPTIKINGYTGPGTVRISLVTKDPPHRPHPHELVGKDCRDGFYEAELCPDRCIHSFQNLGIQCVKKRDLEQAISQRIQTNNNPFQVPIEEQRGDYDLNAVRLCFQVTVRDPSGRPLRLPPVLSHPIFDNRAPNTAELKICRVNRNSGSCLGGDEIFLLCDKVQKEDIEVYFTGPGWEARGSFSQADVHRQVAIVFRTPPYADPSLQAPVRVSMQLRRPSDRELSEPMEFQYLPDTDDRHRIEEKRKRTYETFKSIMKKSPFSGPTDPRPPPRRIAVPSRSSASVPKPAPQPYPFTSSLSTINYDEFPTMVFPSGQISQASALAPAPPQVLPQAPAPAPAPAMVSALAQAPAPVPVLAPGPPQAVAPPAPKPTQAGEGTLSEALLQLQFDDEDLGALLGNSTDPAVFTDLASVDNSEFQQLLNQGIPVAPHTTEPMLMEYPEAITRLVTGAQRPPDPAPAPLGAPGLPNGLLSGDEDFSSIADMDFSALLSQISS

[10] = target: Transcription factor p65 (Homo sapiens) (UniProt Q04206); experiment: Induction of NFkappaB p65 nuclear translocation in human THP1-Xblue cells assessed as percentage of positive nuclei at 10 uM measured after 120 mins by Hoechst 33342 staining based immunofluorescence analysis (reference value: 0%); type: cell-based
[11] = Cytotoxicity against human THP1-Xblue cells assessed as reduction in cell viability at 0.1 to 10 uM incubated for 16 to 18 hrs by MTT assay; type: toxicity, cell-based; settings: dose lower 0.1 µM, time lower 16 hrs, dose upper 10 µM, time upper 18 hrs
THP1-Xblue [12] = experiment: Activation of TRAM/TRIF pathway in human THP1-Xblue cells assessed as increase in IRF3 phosphorylation by Western blot analysis; type: cell-based
THP1-Xblue [13] = experiment: Activation of TRAM/TRIF pathway in human THP1-Xblue cells assessed as increase in STAT1 phosphorylation by Western blot analysis; type: cell-based
THP1-Xblue [14] = experiment: Activation of TRAM/TRIF pathway in human THP1-Xblue cells assessed as induction of phosphorylated IRF3 nuclear translocation by immunofluorescence analysis; type: cell-based
THP1-Xblue [15] = experiment: Induction of IFN-beta production in human THP1-Xblue cells; type: functional, cell-based
Mus musculus [16] = experiment: Adjuvant activity in OVA-immunized C57BL/6J mouse model assessed as increase in IgG levels at 10 ug, sc administered on day 0 and as booster dose on day 21 and measured after 42 days by ELISA; type: functional, organism-based; settings: dose 10.0 µg, time 42.0 day
Mus musculus [17] = experiment: Adjuvant activity in OVA-immunized C57BL/6J mouse model assessed as increase in IgG1 levels at 10 ug, sc administered on day 0 and as booster dose on day 21 and measured after 42 days by ELISA; type: functional, organism-based; settings: dose 10.0 µg, time 42.0 day
Mus musculus [18] = experiment: Adjuvant activity in OVA-immunized C57BL/6J mouse model assessed as increase in IgG2c levels at 10 ug, sc administered on day 0 and as booster dose on day 21 and measured after 42 days by ELISA; type: functional, organism-based; settings: dose 10.0 µg, time 42.0 day
Mus musculus [19] = experiment: Effect on IgG2b levels in OVA-immunized C57BL/6J mouse model at 10 ug, sc administered on day 0 and as booster dose on day 21 and measured after 42 days by ELISA; type: functional, organism-based; settings: dose 10.0 µg, time 42.0 day
[20] = Toxicity in OVA-immunized C57BL/6J mouse model assessed as change in body weight at 10 ug, SC administered on day 0 and measured after 4 days; settings: in vivo, 96 h, dose 10 µg, time 4 day
[21] = Toxicity in OVA-immunized C57BL/6J mouse model assessed as change in ALT level at 10 ug, SC administered on day 0 and as booster dose on day 20 and measured after 40 days; settings: in vivo, 960 h, dose 10 µg, time 40 day
[22] = Toxicity in OVA-immunized C57BL/6J mouse model assessed as change in AST level at 10 ug, SC administered on day 0 and as booster dose on day 20 and measured after 40 days; settings: in vivo, 960 h, dose 10 µg, time 40 day
Oryctolagus cuniculus [23] = experiment: Adjuvant activity in Enterococcus faecium PpiC-immunized New Zealand rabbit model assessed as production of PpiC specific antibody in sera at 38.4 ug administered on day 0, 7.7 ug on day 7 and 14 and measured after 28 days by ELISA; type: functional, organism-based; settings: time 28.0 day
Oryctolagus cuniculus [24] = experiment: Induction of antibody production in New Zealand rabbit at 38.4 ug administered on day 0, 7.7 ug on day 7 and 14 and measured after 28 days by ELISA; type: functional, organism-based; settings: time 28.0 day
Oryctolagus cuniculus [25] = experiment: Adjuvant activity in Enterococcus faecium PpiC-immunized New Zealand rabbit model assessed as production of PpiC specific antibody in sera at 1:50 dilutions at 38.4 ug administered on day 0, 7.7 ug on day 7 and 14 and measured after 28 days by absorbance based analysis; type: functional, organism-based; settings: time 28.0 day
Oryctolagus cuniculus [26] = experiment: Adjuvant activity in Enterococcus faecium PpiC-immunized New Zealand rabbit model assessed as production of PpiC specific antibody in sera at 1:100 dilutions at 38.4 ug administered on day 0, 7.7 ug on day 7 and 14 and measured after 28 days by absorbance based analysis; type: functional, organism-based; settings: time 28.0 day
Oryctolagus cuniculus [27] = experiment: Adjuvant activity in Enterococcus faecium PpiC-immunized New Zealand rabbit model assessed as production of PpiC specific antibody in sera at 1:25600 dilutions at 38.4 ug administered on day 0, 7.7 ug on day 7 and 14 and measured after 28 days by absorbance based analysis; type: functional, organism-based; settings: time 28.0 day
Oryctolagus cuniculus [28] = experiment: Adjuvant activity in Enterococcus faecium PpiC-immunized New Zealand rabbit model assessed as production of PpiC specific antibody in terminal bleed sera at 1:1600 dilutions at 38.4 ug administered on day 0, 7.7 ug on day 7 and 14 and measured after 28 days by ELISA; type: functional, organism-based; settings: time 28.0 day
Oryctolagus cuniculus [29] = experiment: (§1) Adjuvant activity in Enterococcus faecium PpiC-immunized New Zealand rabbit model assessed as antibody production by measuring increase in vancomycin resistant Enterococcus faecium 11236/1 specific antibodies at 38.2 ug administered on day 0, 7.7 ug on day 7 and 14 and measured after 28 days by Whole-bacterial cell ELISA; type: functional, organism-based; settings: time 28.0 day
Mus musculus [30] = experiment: Adjuvant activity in OVA-immunized C57BL/6J mouse model assessed as increase in IgG2b levels at 10 ug, sc administered on day 0 and as booster dose on day 21 and measured after 42 days by ELISA; type: functional, organism-based; settings: dose 10.0 µg, time 42.0 day
Oryctolagus cuniculus [31] = experiment: Adjuvant activity in Enterococcus faecium PpiC-immunized New Zealand rabbit model assessed as production of PpiC specific antibody in sera at 70.2 ug administered on day 0, 14 ug on day 7 and 14 and measured after 28 days by ELISA; type: functional, organism-based; settings: time 28.0 day
Oryctolagus cuniculus [32] = experiment: Adjuvant activity in Enterococcus faecium PpiC-immunized New Zealand rabbit model assessed as production of PpiC specific antibody in sera at 1:50 dilutions at 70.2 ug administered on day 0, 14 ug on day 7 and 14 and measured after 28 days by absorbance based analysis; type: functional, organism-based; settings: time 28.0 day
Oryctolagus cuniculus [33] = experiment: Adjuvant activity in Enterococcus faecium PpiC-immunized New Zealand rabbit model assessed as production of PpiC specific antibody in sera at 1:100 dilutions at 70.2 ug administered on day 0, 14 ug on day 7 and 14 and measured after 28 days by absorbance based analysis; type: functional, organism-based; settings: time 28.0 day
Oryctolagus cuniculus [34] = experiment: Adjuvant activity in Enterococcus faecium PpiC-immunized New Zealand rabbit model assessed as production of PpiC specific antibody in sera at 1:25600 dilutions at 70.2 ug administered on day 0, 14 ug on day 7 and 14 and measured after 28 days absorbance based analysis; type: functional, organism-based; settings: time 28.0 day
Oryctolagus cuniculus [35] = experiment: Adjuvant activity in Enterococcus faecium PpiC-immunized New Zealand rabbit model assessed as production of PpiC specific antibody in terminal bleed sera at 1:1600 dilutions at 70.2 ug administered on day 0, 14 ug on day 7 and 14 and measured after 28 days by ELISA; type: functional, organism-based; settings: time 28.0 day
Oryctolagus cuniculus [36] = experiment: as §1, with “70.2” for “38.2”, “14” for “7.7”; type: functional, organism-based; settings: time 28.0 day
THP1-Xblue [37] = experiment: Immunostimulatory activity in human THP1-Xblue cells assessed as increase in IL-6 release at 0.1 to 10 uM incubated for 16 to 18 hrs by ELISA; type: functional, cell-based; settings: dose 0.1-10 µM, time 16-18 hrs

SMILES: CCCCCCCCCCCC(=O)N[C@H]1[C@H](OC(=O)CCCCCCCCCCC)O[C@H](COC(=O)C(C)(CO)CO)[C@@H](OP(=O)([O-])[O-])[C@@H]1OC(=O)CCCCCCCCCCC.[Na+].[Na+]
- Activity [1]: Active
- Activity [2]: inactive
- Activity (THP1-Xblue [3]): Dose-Dependent Effect
- Activity (THP1-Xblue [4]): Dose-Dependent Effect
- Activity (THP1-Xblue [5]): Dose-Dependent Effect
- Activity [6]: Active
- Activity [7]: Active
- Activity [8]: Active
- Activity [9]: 15.3%
- Activity [10]: 19%
- Activity [11]: Non-Toxic
- Activity (THP1-Xblue [12]): inactive
- Activity (THP1-Xblue [13]): inactive
- Activity (THP1-Xblue [14]): inactive
- Activity (THP1-Xblue [15]): inactive
- Activity (Mus musculus [16]): Active
- Activity (Mus musculus [17]): Active
- Activity (Mus musculus [18]): Active
- Activity (Mus musculus [19]): inactive
- Activity [20]: Non-Toxic
- Activity [21]: Non-Toxic
- Activity [22]: Non-Toxic
- Activity (Oryctolagus cuniculus [23]): Active
- Activity (Oryctolagus cuniculus [24]): inactive
- Activity (Oryctolagus cuniculus [25]): Active
- Activity (Oryctolagus cuniculus [26]): Active
- Activity (Oryctolagus cuniculus [27]): Active
- Activity (Oryctolagus cuniculus [28]): Active
- Activity (Oryctolagus cuniculus [29]): Active

SMILES: CCCCCCCCCCCCCC(=O)O[C@H](CCCCCCCCCCC)CC(=O)N[C@H]1[C@H](OC[C@H]2OC(O)[C@H](NC(=O)C[C@H](O)CCCCCCCCCCC)[C@@H](OC(=O)C[C@H](O)CCCCCCCCCCC)[C@@H]2O)O[C@H](CO)[C@@H](OP(=O)(O)O)[C@@H]1OC(=O)C[C@@H](CCCCCCCCCCC)OC(=O)CCCCCCCCCCCCC (some centres not stated)
- Activity (Mus musculus [16]): Active
- Activity (Mus musculus [17]): Active
- Activity (Mus musculus [18]): Active
- Activity (Mus musculus [30]): Active
- Activity (Oryctolagus cuniculus [31]): Active
- Activity (Oryctolagus cuniculus [32]): Active
- Activity (Oryctolagus cuniculus [33]): Active
- Activity (Oryctolagus cuniculus [34]): Active
- Activity (Oryctolagus cuniculus [35]): Active
- Activity (Oryctolagus cuniculus [36]): Active

SMILES: CCCCCCCCCCCC(=O)N[C@H]1[C@H](OC(=O)CCCCCCCCCCC)O[C@H](CO)[C@@H](OP(=O)(O)O)[C@@H]1OC(=O)CCCCCCCCCCC
- Activity (THP1-Xblue [37]): inactive
- Activity [9]: 1.3%
- Activity [10]: 1.8%
